Measured values: US4436733A, “4"- And 3-ester derivatives of DMT and DMOT” (Eli Lilly and Company, priority 1982, dated 1984)
Where two headings read alike, the source gives them in different places.

What was measured:
[1] = tested on: Staphylococcus aureus S13E; experiment: standard agar-dilution assay, MIC; assay type: cell-based
Description: (§1) The MIC's in Table III were determined by standard agar-dilutionassays. The MIC's in Table IV were obtained using a conventional broth-dilution microtiter test.

[2] = tested on: Staphylococcus aureus X1.1; experiment: standard agar-dilution assay, MIC; assay type: cell-based
Description: as §1

[3] = tested on: Staphylococcus epidermidis EPI1; experiment: standard agar-dilution assay, MIC; assay type: cell-based
Description: as §1

[4] = tested on: Staphylococcus epidermidis EPI2; experiment: standard agar-dilution assay, MIC; assay type: cell-based
Description: as §1

Streptococcus Group 9960 = experiment: standard agar-dilution assay, MIC; assay type: cell-based
Description: as §1

[5] = tested on: Streptococcus Group D X66; experiment: standard agar-dilution assay, MIC; assay type: cell-based
Description: as §1

[6] = tested on: Streptococcus pneumoniae Park I; experiment: standard agar-dilution assay, MIC; assay type: cell-based
Description: as §1

[7] = tested on: Streptococcus pyogenes C203; experiment: standard agar-dilution assay, MIC; assay type: cell-based
Description: as §1

[8] = tested on: Staphylococcus aureus V41; experiment: standard agar-dilution assay, MIC; assay type: cell-based; conditions: Staphylococcus aureus V41, penicillin resistant strain
Description: as §1
^b Penicillinresistant strain

[9] = tested on: Staphylococcus aureus X400; experiment: standard agar-dilution assay, MIC; assay type: cell-based; conditions: Staphylococcus aureus X400, methicillin resistant strain
Description: as §1
^c Methicillinresistant-strain

[10] = tested on: Haemophilus influenzae Holt; experiment: standard agar-dilution assay, MIC; assay type: cell-based; conditions: ampicillin sensitive strain
Description: as §1
^d Ampicillinsensitive strain

[11] = tested on: Haemophilus influenzae R252; experiment: standard agar-dilution assay, MIC; assay type: cell-based; conditions: Haemophilus influenzae R252, ampicillin resistant strain
Description: as §1
^e Ampicillinresistant strain

Mycoplasma gallisepticum = experiment: conventional broth-dilution microtiter test, MIC; assay type: cell-based
Description: as §1

Mycoplasma hyorhinis = experiment: conventional broth-dilution microtiter test, MIC; assay type: cell-based
Description: as §1

Mycoplasma synoviae = experiment: conventional broth-dilution microtiter test, MIC; assay type: cell-based
Description: as §1

[12] = tested on: Pasteurella multocida 17E; experiment: conventional broth-dilution microtiter test, MIC; assay type: cell-based; conditions: bovine isolate
Description: as §1

[13] = tested on: Pasteurella multocida 60A; experiment: conventional broth-dilution microtiter test, MIC; assay type: cell-based; conditions: avian isolate
Description: as §1

Staphylococcus aureus = experiment: conventional broth-dilution microtiter test, MIC; assay type: cell-based
Description: as §1

Streptococcus sp. 80 = experiment: conventional broth-dilution microtiter test, MIC; assay type: cell-based
Description: as §1

[14] = tested on: Streptococcus pyogenes C203; experiment: experimental bacterial infection in mice, ED50; assay type: in vivo; conditions: doses given 1 and 5 hours postinfection, read-out: ED50 (effective dose to protect 50% of the test animals)
Description: The ester derivatives of this invention have shown in vivo antimicrobial activity against experimental bacterial infections caused by gram-positivebacteria. When two doses of test compound were administered to mice with experimental infections, the activity observed was measured as an ED50 value [effective dose in mg/kg to protect 50% of the test animals: see Warren Wick, et al., J. Bacteriol. 81, 233-235 (1961)].
^a mg/kg × 2; doses given 1 and 5 hours postinfection

SMILES | MIC (minimal inhibitory concentration) [1] | MIC (minimal inhibitory concentration) [2] | MIC (minimal inhibitory concentration) [3] | MIC (minimal inhibitory concentration) [4] | MIC (minimal inhibitory concentration) (Streptococcus Group 9960) | MIC (minimal inhibitory concentration) [5] | MIC (minimal inhibitory concentration) [6] | MIC (minimal inhibitory concentration) [7] | MIC (minimal inhibitory concentration) [8] | MIC (minimal inhibitory concentration) [9] | MIC (minimal inhibitory concentration) [10] | MIC (minimal inhibitory concentration) [11] | MIC (minimal inhibitory concentration) (Mycoplasma gallisepticum) | MIC (minimal inhibitory concentration) (Mycoplasma hyorhinis) | MIC (minimal inhibitory concentration) (Mycoplasma synoviae) | MIC (minimal inhibitory concentration) [12] | MIC (minimal inhibitory concentration) [13] | MIC (minimal inhibitory concentration) (Staphylococcus aureus) | MIC (minimal inhibitory concentration) (Streptococcus sp. 80) | other results
CCC1OC(=O)CC(O)C(C)C(OC2OC(C)C(OC3CC(C)(O)C(OC(=O)Cc4ccccc4)C(C)O3)C(N(C)C)C2O)C(CC=O)CC(C)C(=O)C=CC(C)=CC1COC(=O)Cc1ccccc1 (stereo not shown) [Compound 6, 23,4"-Di-O-Phenylacetyl-DMT] | 1 | 1 | 1 | 1 | 0.5 | 0.5 | 0.125 | 0.25 | 1 | 1 | 64 | 64 | ≤ 0.048 | 0.195 | 0.39 | 50 | > 50 | 1.56 | 0.39 | –
CCC(=O)OC1C(C)OC(OC2C(C)OC(OC3C(CC=O)CC(C)C(=O)C=CC(C)=CC(COC(=O)C(Cl)(Cl)Cl)C(CC)OC(=O)CC(O)C3C)C(OC(C)=O)C2N(C)C)CC1(C)O (stereo not shown) [Compound 14, 2'-O-Acetyl-4"-O-Propionyl-23-O-Trichloroacetyl-DMT] | 1 | 0.5 | 0.5 | 2 | 1 | 2 | 0.125 | 0.5 | 1 | 2 | 8 | 8 | 0.39 | 6.25 | 0.195 | 12.5 | 25 | 1.56 | 1.56 | –
CCC1OC(=O)CC(O)C(C)C(OC2OC(C)C(OC3CC(C)(O)C(OC(=O)C(Cl)(Cl)Cl)C(C)O3)C(N(C)C)C2OC(C)=O)C(CC=O)CC(C)C(=O)C=CC(C)=CC1COC(=O)C(Cl)(Cl)Cl (stereo not shown) [Compound 11, 2'-O-acetyl-23,4"-di-O-trichloroacetyl-DMT] | 4 | 4 | 2 | 4 | 4 | 4 | 0.25 | 2 | 8 | 8 | 32 | 16 | – | – | – | – | – | – | – | –
CCC(=O)OC1C(C)OC(OC2C(C)OC(OC3C(CC=O)CC(C)C(=O)C=CC(C)=CC(CO)C(CC)OC(=O)CC(O)C3C)C(O)C2N(C)C)CC1(C)O (stereo not shown) [Compound 16, 4"-O-Propionyl-DMT] | 0.5 | 0.5 | 0.5 | 1 | 0.5 | 0.5 | 0.06 | 0.125 | 0.5 | 1 | 4 | 2 | – | – | – | – | – | – | – | –
CCC1OC(=O)CC(OC(=O)C(Cl)(Cl)Cl)C(C)C(OC2OC(C)C(OC3CC(C)(O)C(O)C(C)O3)C(N(C)C)C2OC(C)=O)C(CC=O)CC(C)C(=O)C=CC(C)=CC1COC(=O)C(Cl)(Cl)Cl (stereo not shown) [Compound 12, 2'-O-acetyl-3,23-di-O-trichloroacetyl-DMT] | 1 | 1 | 1 | 2 | 2 | 2 | 0.125 | 0.5 | 2 | 2 | 32 | 16 | – | – | – | – | – | – | – | –
CCC(=O)OC1CC(=O)OC(CC)C(C)C=C(C)C=CC(=O)C(C)CC(CC=O)C(OC2OC(C)C(OC3CC(C)(O)C(OC(=O)CC)C(C)O3)C(N(C)C)C2OC(C)=O)C1C (stereo not shown) [Compound 23, 2'-O-Acetyl-3,4"-Di-O-Propionyl-DMOT] | 0.5 | 0.5 | 0.5 | 1 | 1 | 1 | 0.06 | 0.5 | 1 | 1 | – | – | 0.39 | 1.56 | 3.12 | 50 | > 50 | 1.56 | 1.56 | ED50 ([14]; C203, mice, oral): > 100 mg/kg; ED50 ([14]; C203, sc, mice, subcutaneous): > 30 mg/kg
CCC(=O)OCC1C=C(C)C=CC(=O)C(C)CC(CC=O)C(OC2OC(C)C(OC3CC(C)(O)C(OC(=O)CC)C(C)O3)C(N(C)C)C2O)C(C)C(O)CC(=O)OC1CC (stereo not shown) [Compound 4, 23,4"-Di-O-Propionyl-DMT] | 0.5 | 0.5 | 0.5 | 1 | 0.5 | 1 | 0.06 | 0.25 | 1 | 1 | – | – | 0.195 | 0.78 | 0.39 | 12.5 | 25 | 0.78 | 1.56 | ED50 ([14]; C203, mice, oral): > 150 mg/kg; ED50 ([14]; C203, sc, mice, subcutaneous): 12 mg/kg
CCC1OC(=O)CC(O)C(C)C(OC2OC(C)C(OC3CC(C)(O)C(OC(=O)CC(C)C)C(C)O3)C(N(C)C)C2OC(C)=O)C(CC=O)CC(C)C(=O)C=CC(C)=CC1C (stereo not shown) [Compound 18, 2'-O-Acetyl-4"-O-Isovaleryl-DMOT] | 1 | 1 | 1 | 2 | 1 | 1 | 0.06 | 0.5 | 1 | 1 | 32 | 32 | 0.39 | 0.78 | – | 12.5 | > 50 | 0.78 | 0.39 | –
CCC1OC(=O)CC(OC(=O)C(Cl)(Cl)Cl)C(C)C(OC2OC(C)C(OC3CC(C)(O)C(OC(=O)C(Cl)(Cl)Cl)C(C)O3)C(N(C)C)C2OC(C)=O)C(CC=O)CC(C)C(=O)C=CC(C)=CC1COC(=O)C(Cl)(Cl)Cl (stereo not shown) [Compound 13, 2'-O-acetyl-3,23,4"-tri-O-trichloroacetyl-DMT] | 8 | 8 | 8 | 16 | 16 | 16 | 2 | 8 | 16 | 16 | 128 | 128 | – | – | – | – | – | – | – | –
